Test results published in ChEMBL document CHEMBL1125487, “Acetazolamide-like carbonic anhydrase inhibitors with topical ocular hypotensive activity” (J Med Chem, 1992).
Converted amounts (≈) assume the structure as drawn.

Tests used:
physchem = conditions: phosphate buffer
Description: Solubility (in phosphate buffer)

Oryctolagus cuniculus [1] = species on record: Oryctolagus cuniculus; assay: Effect on intraocular pressure in left eye was tested by using transition ocular hypertension model at 40 min.; type: functional
Oryctolagus cuniculus [2] = assay: Effect on intraocular pressure in left eye was tested by using transition ocular hypertension model at 10 min. (after 4 hr administration); type: functional
Oryctolagus cuniculus [3] = species on record: Oryctolagus cuniculus; assay: Effect on intraocular pressure in right eye was tested by using transition ocular hypertension model at 40 min.; type: functional
Oryctolagus cuniculus [4] = assay: Effect on intraocular pressure in left eye was tested by using transition ocular hypertension model at 20 min. (after 4 hr administration); type: functional
Oryctolagus cuniculus [5] = assay: Effect on intraocular pressure in left eye was tested by using transition ocular hypertension model at basal condition (after 8 hr administration); type: functional
Oryctolagus cuniculus [6] = assay: Effect on intraocular pressure in right eye was tested by using transition ocular hypertension model at 0 min (after 8 hr administration); type: functional
Oryctolagus cuniculus [7] = species on record: Oryctolagus cuniculus; assay: Effect on intraocular pressure in right eye was tested by using transition ocular hypertension model at 0 min.; type: functional
Oryctolagus cuniculus [8] = species on record: Oryctolagus cuniculus; assay: Effect on intraocular pressure in left eye was tested by using transition ocular hypertension model at 10 min.; type: functional
Oryctolagus cuniculus [9] = species on record: Oryctolagus cuniculus; assay: Effect on intraocular pressure in left eye was tested by using transition ocular hypertension model at basal condition; type: functional
Oryctolagus cuniculus [10] = assay: Effect on intraocular pressure in right eye was tested by using transition ocular hypertension model at 20 min. (after 4 hr administration); type: functional
Oryctolagus cuniculus [11] = assay: Effect on intraocular pressure in left eye was tested by using transition ocular hypertension model at basal condition (after 4 hr administration); type: functional
Oryctolagus cuniculus [12] = assay: Effect on intraocular pressure in right eye was tested by using transition ocular hypertension model at 20 min. (after 8 hr administration); type: functional
Oryctolagus cuniculus [13] = assay: Effect on intraocular pressure in right eye was tested by using transition ocular hypertension model at basal condition (after 8 hr administration); type: functional
Oryctolagus cuniculus [14] = assay: Effect on intraocular pressure in left eye was tested by using transition ocular hypertension model at 40 min. (after 8 hr administration); type: functional
Oryctolagus cuniculus [15] = species on record: Oryctolagus cuniculus; assay: Effect on intraocular pressure in right eye was tested by using transition ocular hypertension model at 10 min.; type: functional
Oryctolagus cuniculus [16] = assay: Effect on intraocular pressure in right eye was tested by using transition ocular hypertension model at 40 min. (after 4 hr administration); type: functional
Oryctolagus cuniculus [17] = assay: Effect on intraocular pressure in right eye was tested by using transition ocular hypertension model at 10 min. (after 8 hr administration); type: functional
Oryctolagus cuniculus [18] = assay: Effect on intraocular pressure in left eye was tested by using transition ocular hypertension model at 40 min. (after 4 hr administration); type: functional
Oryctolagus cuniculus [19] = species on record: Oryctolagus cuniculus; assay: Effect on intraocular pressure in right eye was tested by using transition ocular hypertension model at basal condition; type: functional
Oryctolagus cuniculus [20] = assay: Effect on intraocular pressure in left eye was tested by using transition ocular hypertension model at 20 min. (after 8 hr administration); type: functional
Oryctolagus cuniculus [21] = species on record: Oryctolagus cuniculus; assay: Effect on intraocular pressure in left eye was tested by using transition ocular hypertension model at 20 min.; type: functional
Oryctolagus cuniculus [22] = assay: Effect on intraocular pressure in right eye was tested by using transition ocular hypertension model at 10 min. (after 4 hr administration); type: functional
Oryctolagus cuniculus [23] = species on record: Oryctolagus cuniculus; assay: Effect on intraocular pressure in right eye was tested by using transition ocular hypertension model at 20 min.; type: functional
Oryctolagus cuniculus [24] = assay: Effect on intraocular pressure in left eye was tested by using transition ocular hypertension model at 0 min. (after 8 hr administration); type: functional
Oryctolagus cuniculus [25] = assay: Effect on intraocular pressure in right eye was tested by using transition ocular hypertension model at 0 min (after 4 hr administration); type: functional
Oryctolagus cuniculus [26] = assay: Effect on intraocular pressure in right eye was tested by using transition ocular hypertension model at basal condition (after 4 hr administration); type: functional
Oryctolagus cuniculus [27] = assay: Effect on intraocular pressure in left eye was tested by using transition ocular hypertension model at 10 min. (after 8 hr administration); type: functional
Oryctolagus cuniculus [28] = assay: Effect on intraocular pressure in right eye was tested by using transition ocular hypertension model at 40 min. (after 8 hr administration); type: functional
Oryctolagus cuniculus [29] = species on record: Oryctolagus cuniculus; assay: Effect on intraocular pressure in left eye was tested by using transition ocular hypertension model at 0 min.; type: functional
Oryctolagus cuniculus [30] = assay: Effect on intraocular pressure in left eye was tested by using transition ocular hypertension model at 0 min. (after 4 hr administration); type: functional

NS(=O)(=O)c1nnc(NC(=O)CCC(=O)O)s1 gave a solubility (physchem) of 60.7 mM (≈ 17 mg/mL), an IOP (Oryctolagus cuniculus [1]) of 19 mmHg and an IOP (Oryctolagus cuniculus [2]) of 25.83 mmHg. The IOP (Oryctolagus cuniculus [3]) was 15.67 mmHg, the IOP (Oryctolagus cuniculus [4]) was 22 mmHg and the IOP (Oryctolagus cuniculus [5]) was 15.67 mmHg. The IOP (Oryctolagus cuniculus [6]) was 14.83 mmHg, the IOP (Oryctolagus cuniculus [7]) was 14.33 mmHg and the IOP (Oryctolagus cuniculus [8]) was 26 mmHg. For the same molecule, the IOP (Oryctolagus cuniculus [9]) was 15.5 mmHg, the IOP (Oryctolagus cuniculus [10]) was 18.33 mmHg and the IOP (Oryctolagus cuniculus [11]) was 15.5 mmHg. The IOP (Oryctolagus cuniculus [12]) was 18.67 mmHg, the IOP (Oryctolagus cuniculus [13]) was 15.67 mmHg and the IOP (Oryctolagus cuniculus [14]) was 18.67 mmHg. It also gave an IOP (Oryctolagus cuniculus [15]) of 19.33 mmHg, an IOP (Oryctolagus cuniculus [16]) of 16.33 mmHg and an IOP (Oryctolagus cuniculus [17]) of 22.23 mmHg. The IOP (Oryctolagus cuniculus [18]) was 18.83 mmHg, the IOP (Oryctolagus cuniculus [19]) was 15.67 mmHg and the IOP (Oryctolagus cuniculus [20]) was 21.5 mmHg. It also gave an IOP (Oryctolagus cuniculus [21]) of 21.67 mmHg, an IOP (Oryctolagus cuniculus [22]) of 18.5 mmHg and an IOP (Oryctolagus cuniculus [23]) of 17.17 mmHg. For the same molecule, the IOP (Oryctolagus cuniculus [24]) was 15.67 mmHg, the IOP (Oryctolagus cuniculus [25]) was 13.33 mmHg and the IOP (Oryctolagus cuniculus [26]) was 15.5 mmHg. It also gave an IOP (Oryctolagus cuniculus [27]) of 26.17 mmHg, an IOP (Oryctolagus cuniculus [28]) of 16.5 mmHg and an IOP (Oryctolagus cuniculus [29]) of 15.5 mmHg. For the same molecule, the IOP (Oryctolagus cuniculus [30]) was 15.33 mmHg.
